Assay results: patent US9844572B2, “Promotion of neuronal integration in neural stem cell grafts” (Life & Brain GmbH, priority 2009, dated 2017)

Tests used:
lt-hESNSC [1] = experiment: Neurogenesis assay (differentiation in neuronal generation medium); format: cell-based, human; conditions: 10 days in neuronal generation medium with BIBF1120 (2 μg/ml)
Description: (§1) FIG. 9 The effect of BIBF1120 on lt-hESNSC proliferation and differentiation. The proliferative effect was measured in a BrdU proliferation assay of lt-hESNSC, either with or without BIBF1120 (a). Bars represent the percentage of BrdU positive cells, cultured for 20 hours in NSC-medium or in NSC-medium with BIBF1120 (2 μg/ml) and treated for 2.5 h with BrdU. The neurogenic effect of BIBF1120 on lt-hESNSC was studied (b). Bars represent the percentage of βIII tubulin-positive neurons in lt-hESNSC cultured for 10 days in neuronal generation medium or in neuronal generation medium with BIBF1120 (2 μg/ml).
Differentiation was studied by a neurogenesis assay. In this assay lt-hESNSC were cultured for 10 days in neuronal generation medium or in neuronal generation medium with BIBF1120 (2 μg/ml), fixed and stained for […].

lt-hESNSC [2] = experiment: BrdU cell proliferation assay; format: cell-based, human; conditions: BIBF1120 2 μg/ml for 20 h; BrdU 2.5 h
Description: as §1
For BrdU staining (FIG. 6A) 0.5% Triton X-100 in PBS was used for permeabilizing the cells. After washing, cells were incubated with 2 M HCl for 10 minutes, washed in PBS, equilibrated using 0.1 M borate buffer, washed again in PBS, followed by an incubation with the primary antibody diluted in blocking solution at room temperature over night. Staining with the secondary antibody was performed as described.
5′-bromo-T-deoxyuridine (BrdU) is a thymidine analog that incorporates into dividing cells during DNA synthesis. To determine whether BIBF1120 has an influence on the proliferation rate of lt-hESNSC, cells were cultured under neural proliferation medium with or without BIBF1120 (2 μg/ml) for 20 h. BrdU was added to the culture medium for 2.5 h. […]

[3] = system: mitogen-activated protein kinase (MAPK) and Akt signalling pathways; conditions: after 1-hour treatment; cell culture; cited from earlier work
human Neurons = experiment: Dunn chamber migration assay (chemotaxis of immature neurons); format: cell-based; conditions: BIBF1120 (2 μg), 6 h recording; for chemotactic response of human neurons towards FGF2 gradient in presence of inhibitor: FGF2 200 ng/ml in outer well; for chemotactic response of human neurons towards VEGF gradient in presence of inhibitor: VEGF 200 ng/ml in outer well
Description: FIG. 7A Dunn chamber migration assay. Schematic representation of a direct-viewing Dunn chemotaxis chamber showing the position of the inner well, the bridge, the outer well and the overlying coverslip (a) (Zicha et al., 1991 1998, Zhang et al., 2003). Adopted from Hawksley. Calculation of the forward migration index (FMI) during a 6 h recording period. FMI values can be either positive or negative, depending on the direction in which the cell is migrating (b).
FIG. 7B Directionality analysis of cell movement using scatter plots of cell displacement (c-i). The diagrams orientate such that the position of the outer well of the chamber are vertical (y direction). Each point represents the final position of a cell at the end of the recording period of 6-h; the starting point of migration is fixed at the intersection of the two axes. As control migration of human neurons was monitored in medium only (c). For assessing chemokinesis, equal amounts of FGF2 (d) or VEGF (e) were added to both the outer and the inner wells of the chamber. Chemotaxis was tested by placing FGF2 (f) or VEGF (g) in the outer well only. Migration of human neurons treated with BFBF1120 was monitored towards a FGF2 (h) and VEGF (i) gradient.
Chemotaxis of immature neurons was directly viewed and recorded in stable concentration gradients of FGF2 (200 ng/ml) or VEGF (200 ng/ml), respectively, with or without the addition of BIBF1120 ([…]) using a Dunn chemotaxis chamber (Allen et al., 1998 1998, Zhang et al., 2003). This device is made from a Helber bacteria counting chamber by grinding a circular well in the central platform to leave a 1 mm-wide annular bridge between the inner and the outer well. Chemoattractants added to the outer well of the chamber will diffuse across the bridge to the inner well and form a linear steady gradient within ˜30 min after loading the chamber (Zicha et al., 1991; Webb et al., 1996). To study chemotaxis, the outer well of the Dunn chamber can be filled with medium containing a chemoattractant, whereas the concentric inner well is filled with medium only. Coverslips carrying the cultured cells are inverted and placed onto the chamber. Cell locomotion is recorded through the annular bridge between the concentric inner and outer well. For assessing chemokinesis, the outer and inner wells are filled with equal concentrations of the chemoattractant. A period of 6 h was chosen to assess cell migration.
To determine the efficiency of forward migration during the 6 h recording period, the FMI was calculated as the ratio of forward progress to the total path length (Foxman et al., 1999; Zhang et al.).

[4] = system: lt-hESNSC mixed with immature neurons on hippocampal rat slice cultures; experiment: Transplantation onto rat hippocampal slice cultures (migration of human neurons from mixed grafts); format: cell-based; conditions: 2 μg/ml BIBF1120, day 7
Description: Using a vibroslicer, 400 μm horizontal sections were generated from the hippocampus of 9-10 day-old Wistar rats. The slices included the dentate gyrus and the entorhinal and temporal cortex (Scheffler et al., 2003; Opitz et al., 2007). They were transferred onto a polyester membrane and cultivated at 35° C., 5% CO2 and saturated air humidity in an initial culture medium containing 25% normal horse serum, which was gradually replaced after 3-5 days by chemically defined, serum-free culture medium based on DMEM/F12, N2 supplement and B27 supplement. Medium was changed every other day and 5-7 days after explantation a cell suspension of 50 000 cells in a 1 μl volume was spotted onto the entorhinal cortex of the slice using an injection device.
For immunohistochemical analysis of slice cultures (FIG. 4), cultures were fixed in 4% paraformaldehyde for 4 hours and subsequently washed several times with PBS. Slices were permeabilized/blocked with 0.1% Triton X-100+10% FCS for 6 hours at 25° C. Incubation with primary antibody was for 16 hours at room temperature, followed by washing steps with PBS for 5 hours. Incubation with the secondary antibodies was for 2 hours at room temperature.
To further investigate whether endostatin can also interfere with the chemoattractive effect of neural stem/progenitor cells on immature neurons in a context closer to an in vivo situation, hippocampal rat slice culture experiments were performed. HES-NSC70+N30 were pre-incubated for 30 minutes in 30 μl Cytocon™-Buffer II with either 2 μl stock solution endostatin (n=9) or with 2 μl of the solvent of endostatin (citric-phosphate buffer) as control (n=9), and then deposited on the entorhinal cortex of hippocampal slice cultures. Cultures of pure human neurons were transplanted as positive control (n=9). The slices were further cultured for 18 days after deposition of the cells. 1 μl/ml endostatin stock solution was continuously applied every day to the slice media.
To further investigate whether BIBF1120 can also interfere with the chemoattractive effect of neural stem/progenitor cells on immature neurons, hippocampal rat slice culture experiments were performed. Lt-hESNSC mixed with purified DCX-EGFP positive neurons (30.0000 lt-hESNSC mixed with 100.000 purified neurons per μl) were pre-incubated for 30 min. in Cytocon™-Buffer II with or without 2 μg/ml BIBF1120, respectively, and then deposited on the entorhinal cortex (EC) of hippocampal slice cultures. The slices were further cultured for 7 days after deposition of the cells. 2 μg/ml BIBF1120 was continuously applied every day to the slice media.

For `COC(=O)c1ccc2c(c1)NC(=O)/C2=C(\Nc1ccc(N(C)C(=O)CN2CCN(C)CC2)cc1)c1ccccc1` [BIBF1120, 3-Z-[1-(4-(N-((4-methyl-piperazin-1-yl)-methylcarbonyl)-N-methyl-amino)-anilino)-1-phenyl-methylene]-6-methoxycarbonyl-2-indolinone], the “differentiation (βIII tubulin-positive neurons)” value (lt-hESNSC [1]) is listed as “not significantly influenced”, the “proliferation rate (BrdU positive cells) vs untreated control” value (lt-hESNSC [2]) is listed as “no significant difference” and the “duration of sustained pathway inhibition” value [3] is listed as “up to 32 hours”. For the same compound, the “chemotactic response of human neurons towards FGF2 gradient in presence of inhibitor” value (human Neurons) was “lost their chemotactic response”, the “chemotactic response of human neurons towards FGF2 gradient in presence of inhibitor” value (human Neurons; listed as BFBF1120) was “loose this chemotactic response” and the “chemotactic response of human neurons towards VEGF gradient in presence of inhibitor” value (human Neurons) was “lost their chemotactic response”. For the same compound, the “chemotactic response of human neurons towards VEGF gradient in presence of inhibitor” value (human Neurons; listed as BFBF1120) was “loose this chemotactic response”, the “migration along the z-axis” value [4] was “easily migrated throughout the entire slice tissue” and the “total number of human neurons within 10 μm thick optical plane, bottom of the slice” value [4] was 14±7.8. The “total number of human neurons within 10 μm thick optical plane, middle of the slice” value [4] was 14.6±6.1, the “number of neurons migrated beyond a 250 μm perimeter around the deposition site, increase vs control” value ([4]; xy-axis) was “two-fold increase” and the “migration horizontally over the slice compared to control population” value ([4]; lt-hESNSC mixed with purified neurons) was “enhanced migration and integration capacity”.
